Results on eleven substances are retold here after US7226598B2, “Peptide inhibitors of HIV entry” (priority 1998, dated 2007).

For data set [1], the system named is HIV-1. As for the experimental part:
HIV Infectivity Assay. Inhibitory activity of IQN17 and derivatives was determined in an HIV luciferase assay (Chen et al., 1994). Specifically, virus was made by cotransfecting 293T cells with an HIV-1 genome containing a frame-shift mutation in env and luciferase replacing the nef gene (NL43LucR-E-) along with pCMVHXB2, an expression vector with the HXB2 gp160 gene. The resultant virus is only viable for one round of infection since its genome lacks the envelope gene. The cellular debris was removed by low-speed centrifugation. The remaining viral supernatant was used to infect HOS-CD4/Fusion cells (N. Landau, National Institutes of Health AIDS Reagent Program) in the presence of the potentially inhibitory peptides. Two days post infection, the cells were lysed and luciferase activity was monitored on a Wallac AutoLumat LB953 luminometer (Gaithersburg, Md.). IC50s (the peptide concentration at which half of the viral infection is inhibited) were calculated by fitting the data to a Langmuir equation [y=k/(1+[peptide]/IC50)], where y=luciferase activity and k is a scaling constant.

A short description of data set [2]: Sedimentation equilibrium (analytical ultracentrifugation). The format is physicochemical. As to the method: Sedimentation Equilibrium. All measurements were recorded on a Beckman XL-A analytical ultracentrifuge equipped with an An-60 Ti rotor. Lyophilized peptide was resuspended in water, and the peptide concentration was determined (Edelhoch, 1967). The solution was diluted to 100–200 μM and then dialized overnight against PBS. Following dialysis, the concentration was redetermined and the appropriate dilutions were made, using the dialysis buffer. The samples were centrifuged at speeds ranging from 19,000 to 25,000 RPM.

The nature of data set [3]: Circular dichroism (helicity). In kind it is physicochemical. As to conditions: for CD minimum at 222 nm: 10 μM; for θ222 nm: 20 μM solution of peptide in PBS (legend of Table 1); for helicity: at 20 μM. As to the method:
Circular Dichroism. All CD measurements were performed on an Aviv 62 DS cirucular dichroism spectrometer. […] The mean residue ellipticity (θ) was calculated by dividing the raw signal by peptide concentration (M), pathlength (mm) and number of amino acids. Percent helicity was calculated according to Chen et al. (Biochemistry, 13, 1974, p3350). Thermal denaturation scans of 10 μM peptide solutions in PBS were recorded at 222 nm. The peptide was heated at two degree intervals starting at 4° C., with an equilibration time of 1.5 minutes and an averaging time of 60 seconds.

The nature of data set [4]: Thermal denaturation followed by CD at 222 nm. The format is physicochemical. As for the experimental part:
Circular Dichroism. All CD measurements were performed on an Aviv 62 DS cirucular dichroism spectrometer. Standard scans were performed on 10 μM solutions of peptide in PBS (50 mM sodium phosphate, 150 mM sodium chloride [pH 7.4]) from 200 to 260 nm in a 1 cm pathlength cuvette with a 5 second averaging time. The mean residue ellipticity (θ) was calculated by dividing the raw signal by peptide concentration (M), pathlength (mm) and number of amino acids. Percent helicity was calculated according to Chen et al. (Biochemistry, 13, 1974, p3350). Thermal denaturation scans of 10 μM peptide solutions in PBS were recorded at 222 nm. The peptide was heated at two degree intervals starting at 4° C., with an equilibration time of 1.5 minutes and an averaging time of 60 seconds.

For data set [5], the system named is syncytia formation between HELA cells expressing CD4 and coreceptor and CHO cells expressing gp160. Description: Cell/cell fusion (syncytia) assay. In kind it is cell-based, HIV. As to conditions: HELA CD4/coreceptor + CHO gp160/Tat, 8 to 24 hours; read-out: IC50 of inhibition of syncytia formation.
Description: Assays were carried out to assess the ability of IQN17 to interact with the C-region of gp41 and inhibit function of the fusion protein. This inhibition of membrane fusion by IQN17 and IQN23 and GCN4-pIQI was assessed using a cell based assay. Proteins IQN17, IQN23 and GCN4-pIQI are serially diluted in modified DMEM media with 5% FCS and aliquoted into slide chambers. HELA cells (4×10^4) expressing CD4 and coreceptor and containing a βgalactosidase gene under the control of the Tat promoter are added. CHO cells (2×10^4) expressing gp160 (precursor protein to gp120/gp41) and Tat are also added. The 400 μl miniculture is incubated at 37° for 8 to 24 hours; fused cells (syncytia) will transcribe and translate β-galactosidase. The cells are fixed in gluteraldehyde and exposed to X-gal/Fe solution for one hour. Syncytia that contain P-galactosidase turn blue-green.
Data set [6] deals with HIV, modified to contain a luciferase reporter gene. The format is cell-based. As to conditions: HOS cells expressing CD4 and coreceptor, 6 hours with virus, 48 hours more; read-out: IC50 of inhibition of luciferase activity.
Description: HIV, modified to contain a luciferase reporter gene, is mixed with HOS cells expressing CD4 and coreceptor in the presence of diluted protein for 6 hours at 37° C. […] The virus solution is replaced, and the HOS culture is incubated 48 hours more in fresh media. Luciferase activity is measured in a luminometer.
A short description of data set [7]: Solubility of the peptide (observation).
The nature of data set [8]: Thermal denaturation followed by CD at 222 nm. In kind it is physicochemical. As to conditions: in 2 M GuHCl.
Where [9] appears, read: read-out: IC50 (concentration at which half of viral infectivity is inhibited), Table 1.
The mark [10] stands for this setting: read-out: IC50 for viral infectivity.
The mark [11] stands for this setting: 20 μM peptide in PBS, 3.0 = discrete trimer.
Setting [12] is: midpoint of thermal denaturation, 10 μM peptide in PBS.

Read-outs that look alike come from different tables or passages of the source. Marks after values point to notes of the source that are not given here.

Take “Ac-KIEEIESKIKKIENEIARIKKLLQLTVWGIKQLQARIL-NH2 [II22N17]”: the melting point was above 100 °C. In addition, the IC50 in data set [1] (setting [9]) was around 170 nM. The IC50 in data set [1] (setting [10]) was around 170 nM. Also, the Mobs/Mcalc in data set [2] (setting [11]) is listed as 3.02. Also, in [3], the “CD minimum at 222 nm” value is ~−41,000 deg cm^2 dmol^−1 and the θ222 nm is ~−41,000 deg cm^2 dmol^−1. In data set [4] (at 10 μM), this substance gave a Melting Temperature above 100 °C. Besides, the “Melting Temperature” value in data set [4] (setting [12]) was above 100 °C.
“Ac-RMKQIEDKIEEIESKQKKIENEIARIKKLLQLTVWGIKQLQARIL-NH2 [IQN17]”: the melting point was above 100 °C. In addition, the IC50 in data set [5] fell in the range of 20 to 80 nM. Besides, in data set [1] (setting [9]), the IC50 is around 180 nM. Also, the IC50 in data set [1] (setting [10]) was around 180 nM. In addition, the Mobs/Mcalc in data set [2] (setting [11]) is recorded as 3.15. Besides, the oligomeric state entry in [2] (at 20 μM) is “discretely trimeric”. Moreover, the IC50 in data set [6] is around 250 nM. For the same substance, in data set [3], the θ222 nm is reported as ~−36,000 deg cm^2 dmol^−1 and the helicity result is recorded as “fully helical”. Further, the Melting Temperature result in data set [4] (at 10 μM) is “above 100 °C”. Besides, the Melting Temperature result in [4] (concentration not given) was “above 100 °C”. Also, the “Melting Temperature” value in data set [4] (setting [12]) was above 100 °C.
With EIARIKKLLQLTVWGIKQLQARIL [IQ8N17], in data set [1] (setting [9]), the IC50 was around 10000 nM.
Consider “Ac-LLQLTVWGIKQLQARIL-NH2 [N17, reference compound]”, for which the solubility result in data set [7] was “difficult to get into solution—it precipitates”. Besides, the IC50 in [1] (setting [9]) and in data set [1] (setting [10]) was around 10000 nM throughout.
Turning to “Ac-KIEEIESKQKKIENEIARIKKLLQLTVWGIKQLQARIL-NH2 [IQ22N17]”, the melting point was ~ 76 °C. The IC50 in [1] (setting [9]) was around 1000 nM. For the same substance, the IC50 in data set [1] (setting [10]) is around 1000 nM. Further, in data set [2] (determined at 50 μM), the Mobs/Mcalc is 2.73*. For the same substance, in data set [3], the “CD minimum at 222 nm” value is given as “approximately −36,000 deg cm^2 dmol^−1” and the θ222 nm is on record as ~−36,000 deg cm^2 dmol^−1. Besides, the Melting Temperature entry in [4] (at 10 μM) was “below 80 °C”. Further, the “Melting Temperature” value in data set [4] (setting [12]) was around 76 °C.
In the case of “Ac-RMKQIEDKIEEIESKQKKIENEIARIKKLLQLTVWDIKQLQARIL-NH2 [IQN17(G572D), reference compound]”, the IC50 in [1] (setting [9]) and in data set [1] (setting [10]) was around 20000 nM throughout. For the same substance, the θ222 nm in data set [3] is given as ~−39,000 deg cm^2 dmol^−1.
As to “Ac-RMKQIEDKIEEIESKQKKIENEIARIKKLIEAQQHLLQLTVWGIKQLQARIL-NH2 [IQN23]”, the “gain in inhibitory activity relative to IQN17” value in data set [1] (gp41 residues increased from 17) is given as around 6 fold. Also, the IC50 in data set [1] (setting [9]) is around 30 nM; in [1] (setting [10]) it was around 30 nM; in [6], around 80 nM. Further, the Mobs/Mcalc in [2] (setting [11]) is 3.29; in [2] (at 20 μM) it was 3.3.
For the substance “Ac-KIKKIENEIARIKKLLQLTVWGIKQLQARIL-NH2 [II15N17]”, the melting point is ~ 76 °C. The IC50 in data set [1] (setting [9]) is around 3000 nM. Besides, the IC50 in [1] (setting [10]) is around 3000 nM. In addition, the Mobs/Mcalc in data set [2] (setting [11]) was 2.64. In addition, in data set [3], the “CD minimum at 222 nm” value is given as ~−33,000 deg cm^2 dmol^−1 and the θ222 nm is ~−33,000 deg cm^2 dmol^−1. Moreover, the “Melting Temperature” value in data set [4] (setting [12]) is around 76 °C.
“Ac-YGGIKKKEIEAIKKEQEAIKKKIEAIEKEIVQARQLLSGIVQQQNNLLRAIEAQQH-NH2 [IZN26]”: in data set [4] (setting [12]), the “Melting Temperature” value is around 82 °C.
Substance “Ac-IKKEIEAIKKEQEAIKKKIEAIEKLLQLTVWGIKQLQARIL-NH2 [IZN17]” had a melting point above 100 °C. The “thermal denaturation temperature compared with IQN17” value in data set [8] is recorded as “ten degrees higher”. The IC50 in data set [1] (setting [9]) worked out at 5.6 nM. For the same substance, the oligomeric state entry in data set [2] (at 20 μM) is reported as “discretely trimeric”. For the same substance, in data set [3], the θ222 nm is listed as ~−31,000 deg cm^2 dmol^−1 and the helicity entry is listed as “helical”.
With “KQKKIENEIARIKKLLQLTVWGIKWLWARIL [IQ15N17]”, in [1] (setting [9]), the IC50 is around 10000 nM. In data set [3], the “CD minimum at 222 nm” value was “approximately −27,000 deg cm^2 dmol^−1” and the θ222 nm was ~−27,000 deg cm^2 dmol^−1. Moreover, the “thermal stability lower than that of IQ22N17” value in data set [4] was “about 10 degrees”. Further, in data set [4] (setting [12]), the “Melting Temperature” value was around 64 °C.
